Among the data in PubChem BioAssay AID1645866 (Buhrlage Lab, Dana-Farber Cancer Institute and Novartis …, 2021) are IC50 values, retold here.

SMILES strings stand for the structures. Calls of active or inactive are those of the source.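 Rule for the calls: active = in confirmatory dose-response testing, peak deubiquitinase inhibition of 30% or more; inactive = the rest.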

The assay deals with Ubiquitin carboxyl-terminal hydrolase 28 (Homo sapiens) (UniProt Q96RU2). As to the kind of experiment: Ubiquitin-specific peptidase 28 DUB inhibitors, biochemical concentration-dependence assay, validation of primary screening hits (AID 1645866). To be noted: purified USP28, ubiquitin-rhodamine fluorescence, 30 min.
Ubiquitin carboxyl-terminal hydrolase 28 (Homo sapiens), sequence (Q96RU2 whole entry, looked up): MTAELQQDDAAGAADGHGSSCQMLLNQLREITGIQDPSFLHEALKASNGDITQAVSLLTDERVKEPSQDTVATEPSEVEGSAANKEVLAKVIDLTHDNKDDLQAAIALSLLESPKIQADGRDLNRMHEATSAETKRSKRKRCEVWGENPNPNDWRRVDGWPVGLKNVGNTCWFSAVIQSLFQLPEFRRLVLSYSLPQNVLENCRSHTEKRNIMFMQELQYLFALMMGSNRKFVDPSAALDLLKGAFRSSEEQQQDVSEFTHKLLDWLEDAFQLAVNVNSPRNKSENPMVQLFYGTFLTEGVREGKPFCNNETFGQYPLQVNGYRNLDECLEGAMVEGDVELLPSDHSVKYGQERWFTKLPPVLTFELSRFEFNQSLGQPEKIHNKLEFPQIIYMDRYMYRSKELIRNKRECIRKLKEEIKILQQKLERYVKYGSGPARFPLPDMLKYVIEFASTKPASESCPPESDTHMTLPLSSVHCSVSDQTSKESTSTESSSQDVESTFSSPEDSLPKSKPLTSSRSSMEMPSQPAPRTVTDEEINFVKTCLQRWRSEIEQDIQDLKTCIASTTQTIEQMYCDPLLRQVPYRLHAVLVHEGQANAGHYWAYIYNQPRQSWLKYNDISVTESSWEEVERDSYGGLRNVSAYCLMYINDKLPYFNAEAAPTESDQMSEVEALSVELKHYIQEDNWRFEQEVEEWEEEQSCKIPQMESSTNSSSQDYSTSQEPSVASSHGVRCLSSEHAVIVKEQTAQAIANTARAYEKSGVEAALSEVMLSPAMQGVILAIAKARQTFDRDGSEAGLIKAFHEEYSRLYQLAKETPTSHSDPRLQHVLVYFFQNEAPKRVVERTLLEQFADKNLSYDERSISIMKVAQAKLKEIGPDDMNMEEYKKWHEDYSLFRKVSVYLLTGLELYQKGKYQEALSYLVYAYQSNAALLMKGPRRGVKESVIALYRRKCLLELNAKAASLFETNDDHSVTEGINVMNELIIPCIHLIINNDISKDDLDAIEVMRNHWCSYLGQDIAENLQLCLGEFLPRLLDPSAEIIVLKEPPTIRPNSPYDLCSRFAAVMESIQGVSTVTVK

As for `N#Cc1ccc(Cn2nnc(-c3cccc(Cl)c3)n2)cc1`, the IC50 was 8.66 µM.
Consider `COc1ccccc1CNC(=O)Nc1cccc2ccccc12`, for which the IC50 was 42.4 µM.
With `Cc1cc(C(F)(F)F)n2nc(C3CCN(C(=O)c4cnn(C)c4C)C3)cc2n1` (centres undefined), the IC50 is > 50 µM (inactive).
`Clc1ccc(C[n+]2cc(-c3ccc(Cl)cc3)n3c2CCC3)cc1`: the IC50 was 13.6 µM.
Consider `Cc1ccc(-c2c(C(=O)Nc3ccc(S(N)(=O)=O)cc3)oc(=O)c3ccccc23)cc1`, for which the IC50 is 30.5 µM.
For `Cc1cc(C(=O)Nc2ccc3c(c2)OCCO3)no1`, the IC50 is 9.47 µM.
For the molecule `O=[N+]([O-])c1cccc(-c2noc(CSc3ccccc3)n2)c1`, the IC50 is 3.72 µM.
Regarding `Cc1cc(=O)c2c(O)oc(O)c3c(O)cc(=O)c1c32`, the IC50 was 22 µM.
Regarding `COc1cc(C(=O)Nc2ccc(-c3csc(C)n3)cc2)cc(OC)c1OC`, the IC50 was 4.04 µM.
As to `NS(=O)(=O)c1ccc(CNS(=O)(=O)c2ccc(-c3ccccn3)s2)cc1`, the IC50 was 19.9 µM.
Take `COc1ccc(NC(=O)c2nnn(-c3cccc(C)c3)c2C)cc1`: the IC50 was 26.2 µM.
In the case of `COC(=O)c1cc2c(ccn2C)n1CC(=O)NC1CCCC1` it was > 50 µM (inactive); in that of `Cc1cc(Nc2ccc(C(=O)NCc3ccco3)cc2)n2nc(-c3cccnc3)nc2n1`, 22.3 µM; in that of `Cc1cnnn1-c1ccc(C(=O)Nc2cc(Cl)ccc2Cl)cc1`, 43.5 µM.
For `O=C(COc1ccccc1-c1nnc(-c2ccccc2)o1)Nc1ccc(F)cc1F`, the IC50 is 3.36 µM.
For the molecule `COc1ccc(CCNC(=O)c2cc(C3CC3)nc3c2cnn3C(C)C)cc1`, the IC50 was 3.47 µM.
In the case of `CN(C)C(=O)CSc1nnc(-c2cccc(Cl)c2)n1-c1ccc(Cl)c(C(F)(F)F)c1` it was 5.78 µM.
With `COc1ccccc1-c1nc2c3c(C)c(C)n(Cc4cccnc4)c3ncn2n1`, the IC50 was 20.4 µM.
Regarding `COc1cccc(NC(=O)c2nnn(-c3ccccc3)n2)c1`, the IC50 is 7.33 µM.
With `COCCNC(=O)Cn1c(=O)n(Cc2ccccc2)c(=O)c2c3c(sc21)CCC3`, the half-inhibitory concentration (IC50) is 32.7 µM.
Turning to `COC(=O)[C@]1(O)O[C@@]2(C(=O)OC)c3c(oc4cc(C)cc(O)c4c3=O)[C@H]3c4c(oc5cc(C)cc(O)c5c4=O)C[C@H]1[C@H]32`, the IC50 is > 50 µM (inactive).
In the case of `Cc1ccc(C)c(S(=O)(=O)N2CCN(c3ccc4nnc(-c5ccco5)n4n3)CC2)c1` it was > 50 µM (inactive); in that of `Fc1ccccc1N1CCN(c2ncc3c(n2)CCN(Cc2ccccn2)C3)CC1`, 31 µM; in that of `COc1cccc(C(=O)Oc2ccc3c(=O)c(-c4ccc(OC)c(OC)c4)coc3c2)c1`, 0.14 µM.
As to `O=C1Oc2nc3ccccc3cc2CN1Cc1ccco1`, the IC50 was 18.4 µM.
In the case of `Cc1nc(-c2ccc(-n3cc(C(=O)Nc4cccc(F)c4)c(C)n3)cc2)no1` it was 42.5 µM; in that of `Cc1ccc(C(=O)NCc2ccc(C(=O)Nc3cccc(C)c3)o2)cc1`, 28.1 µM.
For `COc1ccccc1-c1nc2c3c(C)c(C)n(-c4ccc(Br)cn4)c3ncn2n1`, the half-maximal inhibitory concentration (IC50) is 2.07 µM.
Turning to `CCCOc1ccc(C(=O)Nc2ccc(S(=O)(=O)Nc3cc(C)nc(C)n3)cc2)cc1`, the IC50 was 31.5 µM.
Consider `O=C(NCCc1ccco1)c1ccc(N2CCOc3ccccc32)s1`, for which the IC50 was 22.4 µM.
As for `COc1cccc(NC(=O)C2C3C=CC4(O3)C2C(=O)N(CCc2ccccc2Cl)C4C(=O)NC2CCCCC2)c1` (centres undefined), the IC50 is 26.1 µM.
Take `CSc1ncc(C(=O)NC(C)c2ccccc2)c(-c2ccccc2)n1` (centres undefined): the IC50 was 18.5 µM.
As to `O=C(NCc1ccccc1)c1ccc(-c2ccc(N3CCCC3)nn2)cc1`, the IC50 is > 50 µM (inactive).
For `COc1cccc(-c2nc(C(N)=O)c3[nH]c(=O)n(-c4cccc(Cl)c4)c3n2)c1OC`, the IC50 was > 50 µM (inactive).
In the case of `O=C(NCc1ccc(-c2nc3cnccc3o2)cc1)c1ccccc1Br`, the IC50 was > 50 µM (inactive).
For `Cc1cc(C(=O)NC2(O)C(=O)c3ccccc3C2=O)n(C)n1`, the IC50 was 19 µM.
The value for `COCCNC(=O)c1cc(-c2cn(-c3ccccn3)c(C)n2)n2ccccc12` was > 50 µM (inactive).
In the case of `CC(=O)c1cc2c(=O)c3c(C(=O)O)c(O)c(O)cc3oc2c(C(C)=O)c1-c1coc2cc(O)c(O)c(C(=O)O)c2c1=O`, the IC50 was 1.77 µM.
For `COc1ccc(-c2cc(-c3ccc(O)cc3)nc(N)c2C#N)cc1OC`, the IC50 is 32.6 µM.
The value for `O=C(NCC1CC1)C1CCCN(c2ccc(-c3ccccc3)nn2)C1` (centres undefined) was > 50 µM (inactive); that for `COc1ccc(NC(=O)CN2C(=O)c3ccccc3Sc3ccc(C(=O)N4CCCC4)cc32)c(OC)c1` was 18.9 µM.
Regarding `O=C(NCCCc1nc2ccccc2n1Cc1c(Cl)cccc1Cl)c1ccco1`, the IC50 was 25.3 µM.
Consider `O=C(Cn1cc(C(=O)C(F)(F)F)c2ccccc21)N1CCc2ccccc21`, for which the IC50 was 2.68 µM.
Consider `Cc1c(CC(=O)N2CCN(c3ncccn3)CC2)c(=O)oc2cc(O)ccc12`, for which the IC50 is 23 µM.
The value for `CC1=C(c2ccc(C)c(C)c2)S(=O)(=O)NC1=NCC(=O)NCCCc1ccccc1` was 25.5 µM; that for `CC(C)c1nc2sc3c(N(CCO)CCO)ncnc3c2c2c1COC(C)(C)C2` was > 50 µM (inactive).
In the case of `Cc1cc(NC(=O)COc2ccc3oc4ccccc4c3c2)no1`, the IC50 was 26.5 µM.
On to `Cc1cc(C)c2cc(C(=O)NC3CCN(Cc4ccccc4)CC3)[nH]c2c1`, for which the IC50 is 13.8 µM.
In the case of `COc1ccc(OC)c(NC(=O)CS(=O)(=O)c2cn(CC(=O)N3CCC(C)CC3)c3ccccc23)c1`, the 50% inhibitory concentration (IC50) was 25 µM.
On to `COc1ccccc1NC(=O)Cn1cc(C(=O)c2ccc(C)cc2)c(=O)c2ccccc21`, for which the IC50 was 21.8 µM.
For `N#Cc1ccc(Cl)cc1NC(=O)COc1cccnc1[N+](=O)[O-]`, the IC50 is 49.8 µM.
`CC(c1ccccc1)c1nc(-c2ccc(=O)[nH]c2)no1` (centres undefined): the half-inhibitory concentration (IC50) is 3.78 µM.
Consider `CCc1c(Cl)c(O)c(Cl)c(O)c1C(=O)O[C@H]1C(C)O[C@@H](OC/C2=C\C=C\CC(O)/C(C)=C/C(CC)C(O[C@@H]3OC(C)(C)[C@H](O)C(OC(=O)C(C)C)[C@@H]3O)/C(C)=C/C(C)=C/CC(C(C)O)OC2=O)[C@@H](OC)C1O` (some centres undefined), for which the IC50 was > 50 µM (inactive).
For the molecule `COCCCNC(=O)c1ccc(Cn2c(=O)c3ccccc3n(CC(=O)NC3CCCCC3)c2=O)cc1`, the half-maximal inhibitory concentration (IC50) is 23.5 µM.
Regarding `CC1CCc2c(sc3nc(CC#N)[nH]c(=O)c23)C1` (centres undefined), the IC50 is > 50 µM (inactive).
`O=[N+]([O-])c1ccccc1C(c1c[nH]c2ccccc12)c1c[nH]c2ccccc12`: the IC50 was 23.8 µM.
In the case of `Cc1ccc(NC(=O)/C=C/c2cccc(C(F)(F)F)c2)c(O)c1` it was 16.2 µM; in that of `Cc1sc2ccn(C)c(=O)c2c1C(=O)NC1CCCC1`, 4.28 µM.
`CCn1cc(-c2nc(-c3ccccc3)no2)c(=O)c2cc(F)ccc21`: the IC50 was 7.65 µM.
Turning to `COc1ccc(CN2CCCC23CCCN(C(=O)CCc2cccnc2)C3)cc1F` (centres undefined), the IC50 is 26.4 µM.
For the molecule `CCOc1ccc(CCNC(=O)c2cccc3c2C(=O)N(CCOC)C3)cc1OCC`, the IC50 was 16.1 µM.
`CCC(=O)Nc1ccc(-c2nc(Cn3cc(C)cn3)c(C)o2)cc1`: the IC50 is 3.7 µM.
In the case of `COc1ccc(-c2cc3c(=O)n(CC(=O)Nc4ccccc4F)ccn3n2)cc1OC` it was 33 µM.
As to `c1ccc(-c2nc(-c3nnn(-c4ccccc4)c3-c3ccncc3)no2)cc1`, the IC50 was 12.5 µM.
The value for `COc1ccc(/C=C/C(=O)N2CCc3ccccc32)cc1S(=O)(=O)N1CCOCC1` was > 50 µM (inactive); that for `CN1CCN(c2ccc3nc(-c4ccccc4)c(-c4ccccc4)nc3c2)CC1` was > 50 µM (inactive).
On to `CC1=C(C(=O)Nc2ccccc2C)C(c2ccc(OCc3ccccc3F)cc2)n2ncnc2N1` (centres undefined), for which the IC50 was 21.6 µM.
On to `C/C1=C/C=C/[C@H](C)[C@H](O)[C@@H](C)[C@@H](O)[C@@H](C)[C@H](O)[C@H](C)[C@@H](O)[C@@H](C)/C=C(/C)C(=O)c2c(O)c(C)cc3c2C(=O)C=C(NC1=O)C3=O`, for which the IC50 was > 50 µM (inactive).
For `Cc1ccc(C)c(NC(=O)CCc2nc(CSc3nc4ccccc4o3)no2)c1`, the IC50 is 13.4 µM.
In the case of `O=C(COc1ncnc2ccccc12)Nc1ccc2c(c1)OC1(CCCC1)O2` it was 24 µM.
On to `Cc1c(C(=O)NCc2cccc(Br)c2)oc2c1-c1[nH]ncc1CC2`, for which the IC50 is 29.5 µM.
Consider `COc1ccc2c(c1)CCc1c-2n[nH]c1C(=O)Nc1cc(C)on1`, for which the IC50 is 12.2 µM.
In the case of `O=C(/C=C/c1cnc2ccccc2c1)NCc1ccccc1`, the IC50 is 22.6 µM.
The value for `Cc1ccc(-c2nc(-c3ccccc3)c(S(=O)(=O)CC(=O)Nc3ccc(C)c(C)c3)[nH]2)cc1` was 42.3 µM; that for `COc1cccc(/C=C/C(=O)Nc2ccc(N3CCOCC3)cc2)c1OC` was 2.32 µM.
Take `COc1ccc(OC)c(C2CC(=O)Nc3n[nH]c(-c4ccccc4)c32)c1` (centres undefined): the IC50 is 28.5 µM.
For `COc1cc(OC)cc(-n2c(=O)c3sccc3n(CC(=O)c3ccc(F)cc3)c2=O)c1`, the IC50 is 28 µM.
On to `CCn1c(SCC(=O)N2c3ccccc3CC2C)nnc1-c1ccc2c(c1)OCCO2` (centres undefined), for which the IC50 is 33.8 µM.
In the case of `O=C(c1ccco1)N1CCN=C1SCc1ccccc1F` it was 9.78 µM.
With `CC1Oc2ccccc2C(=O)N(Cc2ccc([N+](=O)[O-])cc2)C1=O` (centres undefined), the IC50 was 12.5 µM.
As to `Cc1cccc(NC(=O)CSc2nnc(-c3n[nH]c4c3CCC4)n2N)c1C`, the IC50 is 17.6 µM.
On to `O=C(Nc1cccc(Cl)c1)c1ncn2c1CNS(=O)(=O)c1ccccc1-2`, for which the IC50 was 13.4 µM.
Take `Cc1ccc(NC(=O)c2sc3ncn(CC(=O)N4CCN(c5ccccn5)CC4)c(=O)c3c2C)c(Br)c1`: the IC50 was 16.1 µM.
For `CNc1nc2c(c(=O)n1Cc1ccccc1)CN(C(=O)c1ccc(CN)cc1)CC2`, the IC50 was 48.4 µM.
Turning to `O=C(Nc1cc(Cl)cc(Cl)c1)c1csnn1`, the IC50 is 15.9 µM.
The value for `NC(=O)c1nnn(-c2ccc(NC(=O)c3ccc(F)c(F)c3)cc2)n1` was 11.2 µM; that for `CSc1ccc(CNCc2c(C(=O)O)n(Cc3ccccc3)c3cc(C)ccc23)cc1` was > 5 µM (inactive).
With `COc1ccc(CCNC(=O)CCCCn2c(=O)c3ccccc3n(Cc3cccc(Cl)c3)c2=O)cc1OC`, the half-inhibitory concentration (IC50) was 21.1 µM.
`CC(=O)N1CCCC(c2nc(C)cc(-c3cc(F)ccc3C(=O)O)n2)C1` (centres undefined): the IC50 was > 50 µM (inactive).

As a reminder, the IC50 is the midpoint of a concentration-inhibition curve.
